Test [1] has as its target T1, rat P2X3 receptor (Rattus norvegicus, UniProt P49654).
T1 construct: expressed in transfected cells; host or cells: CHO-K1
T1 sequence (P49654 1-397): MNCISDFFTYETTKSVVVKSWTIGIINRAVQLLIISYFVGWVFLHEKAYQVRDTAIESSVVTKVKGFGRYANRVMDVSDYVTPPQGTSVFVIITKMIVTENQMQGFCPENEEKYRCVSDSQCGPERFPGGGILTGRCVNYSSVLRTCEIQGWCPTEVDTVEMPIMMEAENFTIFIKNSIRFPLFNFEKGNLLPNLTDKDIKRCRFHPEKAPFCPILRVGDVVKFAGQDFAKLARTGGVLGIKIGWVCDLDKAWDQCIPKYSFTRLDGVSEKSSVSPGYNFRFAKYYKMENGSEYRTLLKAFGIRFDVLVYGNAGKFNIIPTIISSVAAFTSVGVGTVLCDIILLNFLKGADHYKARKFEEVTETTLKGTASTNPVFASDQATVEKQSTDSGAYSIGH
Description: P2X3/P2X2/3 FLIPR (Fluorometric Imaging Plate Reader) Assay, P2X3. The format is cell-based. The settings on record: CHO-K1 cells transfected with rat P2X3; agonist α,β-meATP 1 μM; Table 1; read-out: P2X3 pKi (converted). How it is done:
(§1) P2X3/P2X2/3 FLIPR (Fluorometric Imaging Plate Reader) Assay
(§2) CHO-K1 cells were transfected with cloned rat P2X3 or human P2X2/3 receptor subunits and passaged in flasks. 18-24 hours before the FLIPR experiment, cells were released from their flasks, centrifuged, and resuspended in nutrient medium at 2.5×10^5 cells/ml. The cells were aliquoted into black-walled 96-well plates at a density of 50,000 cells/well and incubated overnight in 5% CO2 at 37° C. On the day of the experiment, cells were washed in FLIPR buffer (calcium- and magnesium-free Hank's balanced salt solution, 10 mM HEPES, 2 mM CaCl2, 2.5 mM probenecid; FB). Each well received 100 μl FB and 100 μl of the fluorescent dye Fluo-3 AM [2 μM final conc.]. After a 1 hour dye loading incubation at 37° C., the cells were washed 4 times with FB, and a final 75 μl/well FB was left in each well.
(§3) Test compounds (dissolved in DMSO at 10 mM and serially diluted with FB) or vehicle were added to each well (25 μl of a 4× solution) and allowed to equilibrate for 20 minutes at room temperature. The plates were then placed in the FLIPR and a baseline fluorescence measurement (excitation at 488 nm and emission at 510-570 nm) was obtained for 10 seconds before a 100 μl/well agonist or vehicle addition. The agonist was a 2× solution of α,β-meATP producing a final concentration of 1 μM (P2X3) or 5 μM (P2X2/3). Fluorescence was measured for an additional 2 minutes at 1 second intervals after agonist addition. A final addition of ionomycin (5 μM, final concentration) was made to each well of the FLIPR test plate to establish cell viability and maximum fluorescence of dye-bound cytosolic calcium. Peak fluorescence in response to the addition of α,β-meATP (in the absence and presence of test compounds) was measured and inhibition curves generated using nonlinear regression. PPADS, a standard P2X antagonist, was used as a positive control.

For test [2], the target named is T2, human P2X2/3 receptor (Homo sapiens, UniProt P56373+Q9UBL9).
T2 construct: expressed in transfected cells; host or cells: CHO-K1
T2 sequence (Q9UBL9 1-471): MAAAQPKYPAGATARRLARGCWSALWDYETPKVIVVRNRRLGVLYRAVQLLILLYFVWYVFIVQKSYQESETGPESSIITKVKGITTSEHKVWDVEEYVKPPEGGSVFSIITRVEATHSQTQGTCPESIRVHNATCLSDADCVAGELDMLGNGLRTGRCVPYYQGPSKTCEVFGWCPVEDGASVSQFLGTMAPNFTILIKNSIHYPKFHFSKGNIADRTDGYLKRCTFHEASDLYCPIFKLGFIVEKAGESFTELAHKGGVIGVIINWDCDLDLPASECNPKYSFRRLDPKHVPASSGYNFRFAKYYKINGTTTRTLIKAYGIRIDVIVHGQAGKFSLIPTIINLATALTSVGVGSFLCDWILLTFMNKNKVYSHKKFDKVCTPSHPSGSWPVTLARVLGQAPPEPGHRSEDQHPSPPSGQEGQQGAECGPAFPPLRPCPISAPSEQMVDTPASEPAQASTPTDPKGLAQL
T2 sequence (P56373 1-397): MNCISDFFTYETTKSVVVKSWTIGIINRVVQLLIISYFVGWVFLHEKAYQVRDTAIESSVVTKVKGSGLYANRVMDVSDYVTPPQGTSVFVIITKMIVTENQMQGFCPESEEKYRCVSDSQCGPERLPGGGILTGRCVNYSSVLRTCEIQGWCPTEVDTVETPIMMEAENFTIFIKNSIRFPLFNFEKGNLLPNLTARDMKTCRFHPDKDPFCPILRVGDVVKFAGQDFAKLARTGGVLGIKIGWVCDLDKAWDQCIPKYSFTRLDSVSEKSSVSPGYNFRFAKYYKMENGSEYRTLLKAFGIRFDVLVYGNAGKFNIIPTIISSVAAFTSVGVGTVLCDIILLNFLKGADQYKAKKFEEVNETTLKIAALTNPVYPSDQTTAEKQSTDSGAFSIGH
Description: P2X3/P2X2/3 FLIPR (Fluorometric Imaging Plate Reader) Assay, P2X2/3. It counts as cell-based. The settings on record: CHO-K1 cells transfected with human P2X2/3; agonist α,β-meATP 5 μM; Table 1; read-out: P2X2/3 pKi (converted). How it is done:
as §1, §2, §3

Molecules are shown by their SMILES.

Regarding `COC(C)c1ncnn1-c1cc(C(=O)NC(C)c2cnccn2)cc(-c2ccc(C)cc2)c1` (centres unmarked) [Compound 48, 5-[5-(1-Methoxy-ethyl)-[1,2,4]triazol-1-yl]-4′-methyl-biphenyl-3-carboxylic acid (1-pyrazin-2-yl-ethyl)-amide], the results for the Ki in test [1] and in test [2] were 3.89 nM and 43.7 nM, respectively.

Consider `CCc1ncnn1-c1cc(C(=O)NC2CC2)cc(-c2ccc(Cl)cn2)c1` [Compound 108, 3-(5-Chloro-pyridin-2-yl)-N-cyclopropyl-5-(5-ethyl-[1,2,4]triazol-1-yl)-benzamide], for which the Ki in test [1] was 97.7 nM; in test [2], 4270 nM.

For `Cc1ccc(-c2cc(C(=O)N[C@@H](C)CO)cc(-n3ncnc3C(F)(F)F)c2)cc1` [Compound 65, 4′-Methyl-5-(5-trifluoromethyl-[1,2,4]triazol-1-yl)-biphenyl-3-carboxylic acid ((S)-2-hydroxy-1-methyl-ethyl)-amide], the figures for the Ki in test [1] and in test [2] were 6.76 nM and 2000 nM, respectively.

Turning to `C[C@@H](CO)NC(=O)c1cc(-c2ccc(Cl)cn2)cc(-n2ncnc2C(F)F)c1` [Compound 78, 3-(5-Chloro-pyridin-2-yl)-5-(5-difluoromethyl-[1,2,4]triazol-1-yl)-N-((S)-2-hydroxy-1-methyl-ethyl)-benzamide], the Ki in test [1] was 75.9 nM; in test [2], 8710 nM.

Take `Cc1cnc(CNC(=O)c2cc(-c3ccc(Cl)cn3)cc(-n3ncnc3CC(C)C)c2)cn1` [Compound 89, 3-(5-Chloro-pyridin-2-yl)-5-(5-isobutyl-[1,2,4]triazol-1-yl)-N-(5-methyl-pyrazin-2-ylmethyl)-benzamide]: the Ki is 4.17 nM in test [1] and 89.1 nM in test [2].

On to `Cc1ccc(-c2cc(C(=O)NC(C)c3cnccn3)cc(-n3ncnc3C)c2)nc1` (centres unmarked) [Compound 100, 3-(5-Methyl-pyridin-2-yl)-5-(5-methyl-[1,2,4]triazol-1-yl)-N-(1-pyrazin-2-yl-ethyl)-benzamide], for which the values for the Ki in test [1] and in test [2] were 10.2 nM and 2040 nM, respectively.

For `Cc1ccc(-c2cc(C(=O)NCc3cnc(C)cn3)cc(-n3ncnc3C3CC3)c2)nc1` [Compound 125, 3-(5-Cyclopropyl-[1,2,4]triazol-1-yl)-N-(5-methyl-pyrazin-2-ylmethyl)-5-(5-methyl-pyridin-2-yl)-benzamide], the Ki in test [1] was 19.1 nM; in test [2], 245 nM.

Regarding `Cc1cnc(CNC(=O)c2cc(-c3ccc(Cl)cn3)cc(-n3ncnc3C(F)(F)F)c2)cn1` [Compound 80, 3-(5-Chloro-pyridin-2-yl)-N-(5-methyl-pyrazin-2-ylmethyl)-5-(5-trifluoromethyl-[1,2,4]triazol-1-yl)-benzamide], the Ki in test [1] is 8.91 nM; in test [2], 275 nM.

For `Cc1ccc(-c2cc(C(=O)N[C@@H](C)CO)cc(-n3ncnc3C(F)(F)F)c2)nc1` [Compound 97, N-((S)-2-Hydroxy-1-methyl-ethyl)-3-(5-methyl-pyridin-2-yl)-5-(5-trifluoromethyl-[1,2,4]triazol-1-yl)-benzamide], the figures for the Ki in test [1] and in test [2] were 8.13 nM and 4680 nM, respectively.

As to `Cc1ccc(-c2cc(-n3ncnc3C(F)(F)F)cc(C(=O)NCc3cnc(C)nc3)c2F)nc1` [Compound 178, 2-Fluoro-3-(5-methyl-pyridin-2-yl)-N-(2-methyl-pyrimidin-5-ylmethyl)-5-(5-trifluoromethyl-[1,2,4]triazol-1-yl)-benzamide], the Ki in test [1] was 3.63 nM; in test [2], 51.3 nM.

Regarding `Cc1ccc(-c2cc(C(=O)NC(C)c3cnccn3)cc(-n3nc(C)nc3C(C)C)c2)cc1` (centres unmarked) [Compound 30, 5-(5-Isopropyl-3-methyl-[1,2,4]triazol-1-yl)-4′-methyl-biphenyl-3-carboxylic acid (1-pyrazin-2-yl-ethyl)-amide], the Ki was 4.57 nM in test [1] and 135 nM in test [2].

Turning to `COC(C)c1ncnn1-c1cc(C(=O)NCc2cnc(C)cn2)cc(-c2ccc(C)cc2)c1` (centres unmarked) [Compound 134, 5-[5-(1-Methoxy-ethyl)-[1,2,4]triazol-1-yl]-4′-methyl-biphenyl-3-carboxylic acid (5-methyl-pyrazin-2-ylmethyl)-amide], the figures for the Ki in test [1] and in test [2] were 6.61 nM and 38 nM, respectively.

`CC(NC(=O)c1cc(-c2ccc(Cl)cc2)cc(-n2ncnc2N(C)C)c1)c1cnccn1` (centres unmarked) [Compound 44, 4′-Chloro-5-(5-dimethylamino-[1,2,4]triazol-1-yl)-biphenyl-3-carboxylic acid (1-pyrazin-2-yl-ethyl)-amide]: the Ki in test [1] is 81.3 nM; in test [2] it was 759 nM.

Regarding `Cc1ccc(-c2cc(-n3ncnc3C(C)C)cc(C(=O)NC(C)c3cnccn3)c2F)nc1` (centres unmarked) [Compound 173, 2-Fluoro-5-(5-isopropyl-[1,2,4]triazol-1-yl)-3-(5-methyl-pyridin-2-yl)-N-(1-pyrazin-2-yl-ethyl)-benzamide], the Ki in test [1] is 3.98 nM; in test [2], 85.1 nM.

As for `Cc1ccc(-c2cc(C(=O)NC3CC3)cc(-n3ncnc3C(F)(F)F)c2)cc1` [Compound 64, 4′-Methyl-5-(5-trifluoromethyl-[1,2,4]triazol-1-yl)-biphenyl-3-carboxylic acid cyclopropylamide], the values for the Ki in test [1] and in test [2] were 4.57 nM and 309 nM, respectively.

In the case of `CCCc1ncnn1-c1cc(C(=O)NCc2cnc(C)cn2)cc(-c2ccc(C)cn2)c1` [Compound 116, N-(5-Methyl-pyrazin-2-ylmethyl)-3-(5-methyl-pyridin-2-yl)-5-(5-propyl-[1,2,4]triazol-1-yl)-benzamide], the Ki in test [1] was 2.51 nM; in test [2], 85.1 nM.

Consider `Cc1ccc(-c2cc(C(=O)NC3CC3)cc(-n3ncnc3C(F)(F)F)c2)nc1` [Compound 96, N-Cyclopropyl-3-(5-methyl-pyridin-2-yl)-5-(5-trifluoromethyl-[1,2,4]triazol-1-yl)-benzamide], for which the Ki in test [1] is 4.57 nM; in test [2] it was 1260 nM.

In the case of `Cc1ccc(-c2cc(C(=O)NCc3ncc(C)cn3)cc(-n3ncnc3C(F)(F)F)c2)nc1` [Compound 171, 3-(5-Methyl-pyridin-2-yl)-N-(5-methyl-pyrimidin-2-ylmethyl)-5-(5-trifluoromethyl-[1,2,4]triazol-1-yl)-benzamide], the Ki in test [1] was 16.6 nM; in test [2] it was 209 nM.

Take `COCCc1nc(C)nn1-c1cc(C(=O)N[C@@H](C)CO)cc(-c2ccc(C)cn2)c1` [Compound 155, N-((S)-2-Hydroxy-1-methyl-ethyl)-3-[5-(2-methoxy-ethyl)-3-methyl-[1,2,4]triazol-1-yl]-5-(5-methyl-pyridin-2-yl)-benzamide]: the Ki was 3310 nM in test [1] and 10000 nM in test [2].

Values taken from patent US8440708B2, “Triazole-substituted arylamides as P2X3 and P2X2/3 antagonists” (Roche Palo Alto LLC, priority 2007, dated 2013).
